These results are taken from patent US5730982A, “Therapeutic use of hypervariable region of monoclonal antibody M195 and constructs thereof” (Sloan-Kettering Institute for Cancer Research, priority 1995, dated 1998).

Each structure is given as a SMILES string.

The assay has as its system myeloid leukemic progenitor cells [CFU-GM-(L)] from AML patients. Kind of assay: Purging of fresh leukemic cells from AML patients, CFU-GM-(L) colony inhibition. It counts as cell-based. As to conditions: Homo sapiens, fresh leukemic cells from 4 patients with AML, 4-HC 100 uM/L, VP-16 5 ug/ml where combined. The protocol:
We report the results of a preclinical study comparing four different purging protocols using promyelocytic human cell line HL-60 and myeloid leukemic progenitor cells [CFU-GM-(L)] from AML patients assayed in semisolid culture. We studied the antileukemic effect of 1] complement-dependent lysis by 2 different MoAbs (M195 and F23; 40 ug/ml), reactive with distinct antigens found on early myeloid cells and monocytes, used alone and in combinations; 2] 4-Hydroperoxycyclophosphamide (4-HC) (100 uM/L) alone or 3] combined with VP-16 (5 ug/ml) and 4] a cocktail of 1-3 protocols as above (ie combined immunochemotherapy). Four logs of HL-60 tumor cell elimination was observed after 1 hour incubation with both MoAbs plus 4-HC+VP-16 while the single treatment (ie immunotherapy or chemotherapy) provided 1.5 and 3.0 logs of colony forming inhibition respectively.
The combined treatment of MoAbs and 4-HC+VP-16 produced a 3-log reduction of CFU-GM-(L) colony formation. By comparison the mean recovery of committed normal bone marrow progenitors after incubation with MoAbs and complement was 19.5% for CFU-GM, 32.3% for BFU-E and 16.7% for CFU-MIX.

Turning to `O=P1(N(CCCl)CCCl)NC(OO)CCO1` (stereo not shown) [4-HC, 4-Hydroperoxycyclophosphamide], the inhibition at 100 µM worked out at 95.5%.

By inhibition is commonly meant the change of the read-out against control, counted positive when it falls.
